The conditions of series [1]: compared with Yohimbine; cited from earlier work.
The target of another series is T1, ADRA2a (Homo sapiens, UniProt P08913).
T1 sequence (P08913 1-465): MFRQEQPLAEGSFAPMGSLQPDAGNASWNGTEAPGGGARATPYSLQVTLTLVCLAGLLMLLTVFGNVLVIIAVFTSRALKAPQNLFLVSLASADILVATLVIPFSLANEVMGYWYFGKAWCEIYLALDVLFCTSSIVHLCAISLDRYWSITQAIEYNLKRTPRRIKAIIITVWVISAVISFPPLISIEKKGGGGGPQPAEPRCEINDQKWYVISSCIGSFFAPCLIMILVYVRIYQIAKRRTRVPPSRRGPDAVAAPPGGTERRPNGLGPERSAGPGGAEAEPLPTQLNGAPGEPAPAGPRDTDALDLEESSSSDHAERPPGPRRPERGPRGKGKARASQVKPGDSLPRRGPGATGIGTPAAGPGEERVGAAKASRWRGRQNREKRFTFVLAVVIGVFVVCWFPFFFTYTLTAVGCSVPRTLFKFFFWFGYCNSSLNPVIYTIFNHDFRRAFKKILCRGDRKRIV
The conditions noted are these: some affinity for all; cited from earlier work.

Series [2] deals with Primary human hepatic stellate cells. Nature of the series: 3D collagen gel contraction of hepatic stellate cells. The format is cell-based. The conditions noted are these: 6 hours. From the text:
Primary human HSCs (huHSC) were isolated from wedge sections of liver tissue obtained from patients with no history of liver disease undergoing liver resection for colorectal metastasis in the Royal Free Hospital, with local Tissue act for patient benefit ethics approval. All the participants provided written informed consent in accordance with the Helsinki Declaration.
Cells isolation in brief: 10 g of total human liver tissue was digested with 0.01% Collagenase, 0.05% Pronase and 0.001% DNase I without performing perfusion. The homogenate was filtered through a 100 µm cell strainer (BD Biosciences) and the flow-through was centrifuged at 50×g for 2 minutes at 4° C. After washing the supernatant, gradient centrifugation was performed at 1400×g for 17 minutes at 4° C. using an 11.5% Optiprep gradient (Sigma-Aldrich Company Ltd.). Finally, the interface was collected and washed. […]
Human and rat HSCs were cultured within 3D collagen gels (Fibroblast-populated collagen lattices; FPCL). […] Gel areas were measured using ImageJ v1.49 software (US National Institutes of Health, Bethesda MD, USA, http://imagej.nih.gov/ij/).

The subject of the next series is working memory. Nature of the series: Working memory test in HFHC NASH rats. It is filed as in vivo, Sprague Dawley rats. The conditions noted are these: HFHC diet 16 weeks, Yohimbine for the last 8 weeks vs placebo. From the text: (§1) Animals were studied after 16 weeks of feeding.
Working memory and behavioural testing was through standard psychometric assessments before termination, such as application of the Barnes Maze.

Series [3] concerns noradrenaline (Norepinephrine—NE). Nature of the series: Noradrenaline levels (HPLC) in HFHC NASH rats. It is filed as in vivo, Sprague Dawley rats. The conditions noted are these: HFHC+YoHCl vs HFHC.
Source text: as §1

The test system of series [4] is Genes involved in fibrogenesis (TIMP-1 and Collal), MMP2. Briefly: Expression of genes involved in fibrogenesis in HFHC NASH rats. It is filed as in vivo, Sprague Dawley rats.
Source text: as §1

Series [5] has as its system cytokines and chemokines (Cx3CL1, CxCL5, CCL3). Nature of the series: Cytokines and chemokines (ELISA) in HFHC NASH rats. It is filed as in vivo, Sprague Dawley rats.
Source text: as §1

The subject of series [6] is rat model of NASH induced by a high fat high cholesterol (HFHC) diet. Briefly: Rat model of NASH induced by HFHC diet: liver weight, fat, AST, histology scores, fibrosis. The format is in vivo, Sprague Dawley rats.
Source text: as §1

In another series the test system is ADRA2A receptors. The conditions noted are these: HFHC+YoHCl vs HFHC.
[7] abbreviates: HFHC model, Yohimbine therapy for 8 weeks, p=0.03.
Where [8] appears, read: H&E liver, HFHC+YoHCl (n=9) vs HFHC (n=6), 8 weeks treatment.

“Also recorded” adds a separate entry of the source.

Procedure for ADRA2A receptors: Sprague Dawley rats (240-300 g) were randomly divided into 3 groups (Standard diet, HFHC+placebo, HFHC+Yohimbine). The animals were kept under controlled temperature (20±2° C.) and light (lights on at 08:00-20:00). The standard diet was composed of the following energy sources: 67 g carbohydrates (70 kcal %), 4 g fat (10 kcal %), and 19 g protein (20 kcal %) per 100 g diet. The HFC diet contained 19 g carbohydrates (15 kcal %), 39 g fat (65 kcal %), 2 g cholesterol, and 27 g protein (20 kcal %) per 100 g diet. The study was performed in accordance with local and national guidelines for animal welfare and approved by the institutional Animal Ethics Committee.
Animals were studied after 16 weeks of feeding. Animals in the HFHC group were randomised after 8 weeks of feeding to either treatment with placebo or Yohimbine, in addition to their ongoing diets. Yohimbine Hydrochloride (Product Number Y3125, Sigma-Aldrich, Dorset, UK), an ADRA2A antagonist, was administered in the drinking water at a dosage of 0.4 mg/kg rat/day. In the placebo treated group, an equivalent volume of water was administered. The rats were weighed daily and the Yohimbine treatment weight adjusted.
At the end of 16 weeks of feeding, rats were exsanguinated and the blood and tissues harvested and stored at −80 C for subsequent analyses. […]

With `COC(=O)[C@@H]1[C@H]2C[C@H]3c4[nH]c5cc(O)ccc5c4CCN3C[C@@H]2CC[C@@H]1O` [11-OH Yohimbine], in [1], the half life result was “longer half life” and the oral bioavailability result is reported as “better oral bioavailability”.

As to `COC(=O)[C@H]1[C@H]2C[C@H]3c4[nH]c5ccccc5c4CCN3C[C@H]2CC[C@@H]1O` [Rauwolscine], the “selectivity among ADRA2 subtypes” value at ADRA2a is “most selective for ADRA2a”.

For `CC1c2ccccc2CN1CC1=NCCN1` (stereo not shown) [BRL44408], in series [2] (5 uM Guanfacine and 5 uM BRL44408 vs guanfacine alone), the “contraction in a 3D collagen gel” value is recorded as “less contraction”.

With `N=C(N)NC(=O)Cc1c(Cl)cccc1Cl` [Guanfacine], the “contraction in a 3D collagen gel” value in [2] (5 uM Guanfacine vs serum free medium) is on record as “significantly greater contraction”.

In the case of `COC(=O)[C@@H]1[C@H]2C[C@H]3c4[nH]c5ccccc5c4CCN3C[C@@H]2CC[C@@H]1O` [Yohimbine], the “selectivity among ADRA2 subtypes” value at ADRA2a was “most selective for ADRA2a”. Moreover, the working memory entry with working memory is given as “significantly improved; also recorded: improves”. Besides, in [3], the “Levels of noradrenaline (NE)” value was “further but non-statistical increase”. In series [4] (setting [7]), the Collal gene expression entry is listed as “significantly (p=0.03 for both) reduced” and the TIMP-1 gene expression entry is “significantly (p=0.03 for both) reduced”. Moreover, in series [4] (HFHC rats, Yohimbine hydrochloride therapy), the MMP2 expression entry was “reduced”. In series [5] (HFHC+YoHCl (8 weeks) vs HFHC), the CCL3 protein expression result was “decrease markedly”, the Cx3CL1 protein expression entry was “decrease markedly” and the CxCL5 protein expression result is listed as “decrease markedly”. Moreover, the “cytokines and chemokines (liver and systemic inflammation)” value in series [5] (HFHCD_YoHCl vs HFHCD, 16 weeks diet) was “reduced liver and systemic inflammation”. In series [6] (setting [8]), the hepatic inflammation score result is listed as “significant reduction”, the hepatic steatosis score result is listed as “significant reduction”, the hepatocyte ballooning score entry is “significant reduction” and the “non-alcoholic fatty liver disease (NAFLD) activity score (NAS)” value is listed as “significant reduction”. Also, the “fibrosis (Picro sirius red stained liver)” value in series [6] (HFHC NASH rats with Yohimbine vs without treatment) is given as “visually decreased”. Besides, the “Collagen proportionate area (CPA)” value in [6] (HFHC NASH rats with Yohimbine vs without treatment, n=6 per group, HFHCD vs HFHCD_YoHCl p=0.016) is recorded as “reduced”. For the same molecule, the liver fat result in series [6] (HFHC diet 16 wks, Yohimbine for last 8 weeks) was “reduced”. Also, the Liver-body weight ratio entry in series [6] (HFHC diet 16 wks, Yohimbine for last 8 weeks, 0.4 mg/kg rat/day in drinking water, HFHCD vs HFHCD_YoHCl p=0.014) is “restored”. Also, the “AST (liver injury)” value in [6] (HFHC rats after 8 weeks of Yohimbine therapy, HFHCD vs HFHCD_YoHCl p=0.007) is recorded as “decreased”. The “ADRA2A receptor expression in liver tissue” value in the series on ADRA2A receptors is reported as “does not significantly reduce”.

The values above are taken from patent publication US12239641B2, “Methods of treating or preventing fibrosis in non-alcoholic fatty liver disease” (priority 2018, dated 2025).
